Assay results taken from patent US8206707B2, “Combination therapy for the treatment of ocular neovascular disorders” (Ophthotech Corporation, priority 2004, dated 2012).
“Also recorded” adds a separate entry of the source.

Legend:
[1] = test system: choroidal neovascularization; assay: Laser-induced choroidal neovascularization (CNV) model, Example 2; format: in vivo, C57BL/6 mice; conditions: treated 7 days from day 7; for decrease in CNV area compared to control eyes: experiment with Gleevec (50 mg/kg gavage twice a day) and pegaptanib 25 mg/kg i.p. twice a day
Procedure: Experimental CNV is often used as a model for Age-related Macular degeneration (AMD). In this model, vessels of the choroid grow through breaks in Bruch's membrane and into the retina, similar to what is observed in AMD patients. To induce experimental CNV, male C57BL/6 mice (18-20 g; Charles River, Wilmington, Mass.) were anesthetized with intramuscular ketamine hydrochloride (25 mg/kg) and xylazine (10 mg/kg) and the pupils were dilated with 1% tropicamide. Four burns were generated using diode laser photocoagulation (75-μm spot size, 0.1-second duration, 90 mW, Oculight SL laser, IRIDEX, Mountain View, Calif.) and a hand-held cover slide as a contact lens. Burns localized to the 3, 6, 9 and 12 o'clock positions of the posterior pole of the retina. Production of a bubble at the time of laser, which indicates rupture of Bruch's membrane, is an important factor in obtaining choroidal neovascularization, so only mice in which a bubble was produced for all four burns were included in the study. […] In experiments using APB5 (an anti-mouse PDGFRb (CD140b) antibody (anti-PDGF agent) from eBioscience, San Diego, Calif.), 5 mg/kg of antibody was administered using intra-peritoneal injections of twice a day. The area of choroidal NV lesions was measured in flat-mounted choroid stained with PECAM. Flat-mounts were examined by fluorescence microscopy and quantified using Openlab software.

[2] = test system: corneal neovascularization; assay: Corneal NV regression, anti-VEGF aptamer and anti-PDGF aptamer, Example 6; format: in vivo, C57BL/6 mice; conditions: pegaptanib 25 mg/kg i.p. twice a day, ARC-127 50 mg/kg once a day; treated day 10-20, read day 20; FIGS. 11, 12
Procedure: (§1) Corneal Neovascularization is a widely used animal model that allows clear visualization of abnormal vascular growth in the eye. The vessels that grow into the normally avascular cornea, can become well established, making this an attractive model to study vessel regression. To induce experimental corneal NV, male C57BL/6 mice (18-20 g; Charles River, Wilmington, Mass.) were anesthetized with intramuscular ketamine hydrochloride (25 mg/kg) and xylazine (10 mg/kg). NaOH (2 ul of 0.2 mM) was applied topically. The corneal and limbal epithelia were removed by applying a rotary motion parallel to the limbus using #21 blade (Feather, Osaka, Japan). […] Corneal NV was visualized using fluorescence microscopy and quantified using Openlab software. The percent of cornea covered by vessels was calculated as a percentage of total corneal area.
The corneal NV model of Example 1 was used to investigate the combination of an anti-VEGF aptamer and anti-PDGF aptamer. […] Corneal NV was visualized using CD31 staining (BD Biosciences Pharmingen, San Diego, Calif.) and quantified using Metamorph software. The percent of cornea covered by vessels was calculated as a percentage of total corneal area.

[3] = test system: developing vessels of the retina; assay: Neonatal mouse model, developing vessels of the retina, Example 3; format: in vivo, Neonatal C57BL/6 mice; conditions: for effect on blood vessels of the developing retina (growth, morphology): 100 μg of each agent i.p. daily from P0, eyes taken at P4, versus control non-treated retina, FIG. 10
From the text: The effect of administering pegaptanib sodium (Macugen™), and ARC-127 (Archemix Corp., Cambridge, Mass.), a PEGylated, anti-PDGF aptamer having the sequence […] […] […] GT (SEQ ID NO: 23, which corresponds to SEQ ID NO: 146 from U.S. Pat. No. 6,582,918, incorporated herein by reference in its entirety) having 2′-fluoro-2′-deoxyuridine at positions 6, 20 and 30, 2′-fluoro-2′-deoxycytidine at positions 8, 21, 28, and 29, 2′-O -Methyl-2′-deoxyguanosine at positions 9, 15, 17, and 31, 2′-O-Methyl-2′-deoxyadenosine at position 22, “N” in positions 10 and 23 from a hexaethylene-glycol phosphoramidite, and an inverted orientation T (i.e., 3′-3′-linked) at position 32, or both on the developing vessels of the retina was investigated. Neonatal C57BL/6 mice were injected daily (in the intra-peritoneal cavity) with 100 μg of ARC-127 or 100 μg of Macugen or both, starting on postnatal day 0 (P0). Mice eyes were enucleated at P4. The retinal vasculature was visualized in flatmounted retinas by immunostaining with PECAM and NG-2 or by perfusion with ConA-FITC and analyzed by fluorescence microscopy.

[4] = test system: corneal neovascularization; assay: Corneal neovascularization (corneal NV) model, Example 1; format: in vivo, C57BL/6 mice; conditions: mice; pegaptanib 25 mg/kg i.p. twice a day, Gleevec 50 mg/kg gavage twice a day; treated day 7-14, read day 14; FIG. 5
[5] = test system: corneal neovascularization; assay: Corneal NV regression, order of addition of therapeutic agent, Example 8; format: in vivo, C57BL/6 mice; conditions: APB5 from day 14-21, pegaptanib sodium from day 21-28; read day 28; FIG. 14
Procedure: as §1
(§2) The corneal NV model of Example 1 was used to investigate the effect of order of addition of the combination therapy using an anti-VEGF aptamer and an antibody against the PDGFB receptor. […] Corneal NV was visualized using fluorescence microscopy and quantified using Openlab software. The percent of cornea covered by vessels was calculated as a percentage of total corneal area and the results are depicted in FIG. 14.

[6] = test system: corneal neovascularization; assay: Corneal NV regression, anti-VEGF aptamer and antibody against PDGFB receptor, Example 7; format: in vivo, C57BL/6 mice; conditions: pegaptanib 25 mg/kg i.p. twice a day, APB5 50 mg/kg by gavage twice a day; treated day 14-28, read day 28; FIG. 13
Procedure: as §1
as §2, with “combination” for “effect”, “of” for “of order of addition of the combination therapy using”, “area.” for “area and the results are depicted in FIG. 14.”

Row | Compound | decrease in CNV area compared to control eyes [1] | decrease in vessel growth (percent of cornea covered by vessels) as compared to day 20 controls [2] | mural cell recruitment to the developing vessels of the retina ([3]; 100 μg i.p. daily from P0, eyes taken at P4) | effect on blood vessels of the developing retina (growth, morphology) [3] | decrease in vessel growth (percent of cornea covered by vessels) as compared to untreated controls and Gleevec treated eyes [4] | effect on blood vessels of the developing retina (growth, morphology) ([3]; listed as Macugen) | decrease in CNV area compared to control ([1]; experiment with APB5 (5 mg/kg i.p. twice a day) and pegaptanib 25 mg/kg i.p. twice a day) | regression of corneal neovascularization, less neovascular growth as compared to control [5] | decrease in vessel growth (percent of cornea covered by vessels) as compared to control [6]
1 | Cc1ccc(NC(=O)c2ccc(CN3CCN(C)CC3)cc2)cc1Nc1nccc(-c2cccnc2)n1 [Gleevec] | 4.2% |  |  |  |  |  |  |  | 
2 | ARC-127: PEGylated, anti-PDGF aptamer (Archemix Corp.), sequence CAGGCUACGNCGTAGAGCAUCANTGATCCUGT (SEQ ID NO: 23) with 2′-fluoro and 2′-O-methyl modifications (CAGGCUACGNCGTAGAGCAUCANTGATCCUGT; PEG, 2'-fluoro and 2'-O-methyl modifications, chemistry not fully specified) |  | did not show a significant decrease | completely blocked | less vessel growth; also recorded: affects vessels outgrowth and morphology |  |  |  |  | 
3 | pegaptanib sodium | 27% | 13.81% |  |  | 19.6% | did not interfere; also recorded: no effect | 24% | little effect | 8.3%
